From ChEMBL document CHEMBL5149979, “Emerging small-molecule inhibitors of the Bruton's tyrosine kinase (BTK): Current development” (Eur J Med Chem, 2021) come the findings set out here.

Values after ≈ are worked out from the molar mass of the structure shown.

Data set [1] in a line: Antiproliferative activity against human MINO cells reduction in cell viability incubated for 72 hrs by CellTiter-Glo luminescent cell viability assay. It counts as functional, cell-based.
For data set [2], the target named is T1, Tyrosine-protein kinase BTK (Homo sapiens, UniProt Q06187). Put plainly: Inhibition of BTK (unknown origin) incubated for 40 mins by radiometric assay.
T1 sequence (Q06187 whole entry): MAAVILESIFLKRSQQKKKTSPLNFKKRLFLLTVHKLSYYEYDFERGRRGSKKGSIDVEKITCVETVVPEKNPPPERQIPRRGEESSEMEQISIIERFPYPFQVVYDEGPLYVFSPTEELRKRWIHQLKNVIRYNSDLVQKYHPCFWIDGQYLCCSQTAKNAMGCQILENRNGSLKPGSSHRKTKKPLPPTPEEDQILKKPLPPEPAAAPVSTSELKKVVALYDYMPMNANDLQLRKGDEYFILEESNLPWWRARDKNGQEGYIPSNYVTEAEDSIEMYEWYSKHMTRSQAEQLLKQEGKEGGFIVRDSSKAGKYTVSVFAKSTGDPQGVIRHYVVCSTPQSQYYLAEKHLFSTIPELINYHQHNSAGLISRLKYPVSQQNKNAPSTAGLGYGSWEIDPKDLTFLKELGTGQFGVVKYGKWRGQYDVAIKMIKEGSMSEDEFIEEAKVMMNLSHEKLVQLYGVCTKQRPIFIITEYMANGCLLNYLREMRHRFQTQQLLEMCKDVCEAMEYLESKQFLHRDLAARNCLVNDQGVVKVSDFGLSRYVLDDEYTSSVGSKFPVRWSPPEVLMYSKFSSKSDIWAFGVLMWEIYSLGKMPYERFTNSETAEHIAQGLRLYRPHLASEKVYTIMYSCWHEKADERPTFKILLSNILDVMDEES
Data set [3] has as its target T1, Tyrosine-protein kinase BTK. The experiment in a line: Inhibition of BTK (unknown origin) using Poly(Glu4,Tyr1) as substrate in presence of ATP.
In data set [4] the test system is TMD8. The experiment in a line: Antiproliferative activity against human TMD8 cells assessed as reduction in cell viability incubated for 72 hrs by CCK-8 assay. It counts as functional, cell-based. The conditions noted are these: TMD8, 72 h.
The target in data set [5] is Epidermal growth factor receptor (Homo sapiens, UniProt P00533). The experiment in a line: Inhibition EGFR (unknown origin) expressed in baculovirus expression system by ELISA.
Epidermal growth factor receptor, sequence (P00533 whole entry): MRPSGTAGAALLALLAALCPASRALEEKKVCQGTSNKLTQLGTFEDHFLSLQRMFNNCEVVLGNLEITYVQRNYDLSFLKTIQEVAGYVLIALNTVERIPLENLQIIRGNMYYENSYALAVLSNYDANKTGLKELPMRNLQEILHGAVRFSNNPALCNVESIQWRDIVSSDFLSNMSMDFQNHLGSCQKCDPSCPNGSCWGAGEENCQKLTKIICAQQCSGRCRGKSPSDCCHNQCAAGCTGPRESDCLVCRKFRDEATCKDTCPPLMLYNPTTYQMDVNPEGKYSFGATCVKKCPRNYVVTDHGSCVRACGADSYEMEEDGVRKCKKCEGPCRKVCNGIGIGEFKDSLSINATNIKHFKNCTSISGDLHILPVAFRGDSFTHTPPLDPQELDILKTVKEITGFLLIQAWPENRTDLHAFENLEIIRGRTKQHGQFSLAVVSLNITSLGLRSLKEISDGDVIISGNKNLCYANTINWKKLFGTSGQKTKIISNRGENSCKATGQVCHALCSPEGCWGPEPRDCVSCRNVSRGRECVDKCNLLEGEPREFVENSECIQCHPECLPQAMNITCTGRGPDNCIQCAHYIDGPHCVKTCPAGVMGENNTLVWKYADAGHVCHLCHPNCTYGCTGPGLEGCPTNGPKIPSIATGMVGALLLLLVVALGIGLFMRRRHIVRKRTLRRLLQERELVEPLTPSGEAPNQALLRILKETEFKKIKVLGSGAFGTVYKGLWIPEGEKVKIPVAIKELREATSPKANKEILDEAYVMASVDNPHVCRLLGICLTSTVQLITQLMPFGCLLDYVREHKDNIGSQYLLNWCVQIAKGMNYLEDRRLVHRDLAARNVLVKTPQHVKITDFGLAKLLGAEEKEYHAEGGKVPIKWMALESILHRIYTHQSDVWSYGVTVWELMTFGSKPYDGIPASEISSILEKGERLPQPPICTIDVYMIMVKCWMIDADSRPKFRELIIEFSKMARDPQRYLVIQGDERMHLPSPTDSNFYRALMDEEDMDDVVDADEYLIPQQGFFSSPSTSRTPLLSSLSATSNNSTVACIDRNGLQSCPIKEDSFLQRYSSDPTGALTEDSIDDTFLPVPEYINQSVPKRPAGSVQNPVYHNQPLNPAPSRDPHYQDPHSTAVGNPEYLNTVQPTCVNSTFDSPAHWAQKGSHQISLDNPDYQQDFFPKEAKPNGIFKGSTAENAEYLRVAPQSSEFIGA
A short description of data set [6]: Kinetic solubility of the compound. As to conditions: read-out: Kinetic_solubility. Format: physicochemical.
The subject of another data set is Z-138. Put plainly: Antiproliferative activity against human Z138 cells reduction in cell viability incubated for 72 hrs by CellTiter-Glo luminescent cell viability assay. The conditions noted are these: Z-138, 72 h.
Data set [7] relates to Ramos. The experiment in a line: Antiproliferative activity against human Ramos cells assessed as reduction in cell viability measured after 72 hrs by CCK-8 assay. It counts as functional, cell-based.
Data set [8] deals with T1, Tyrosine-protein kinase BTK. The experiment in a line: Inhibition of BTK (unknown origin) incubated for 60 mins by ADP-Glo kinase assay.
The next data set deals with NAMALVA. Put plainly: Antiproliferative activity against human NAMALWA cells assessed as reduction in cell viability measured after 72 hrs by CCK-8 assay. Format: functional, cell-based.
Data set [9] has as its system U-937. Put plainly: Antiproliferative activity against human U-937 cells assessed as reduction in cell viability measured after 72 hrs by CCK-8 assay. As to conditions: U-937, 72 h.
Data set [10] concerns Raji. The experiment in a line: Antiproliferative activity against human Raji cells assessed as reduction in cell viability measured after 72 hrs by CCK-8 assay. Format: functional, cell-based.
Another data set has as its system HL-60. Put plainly: Antiproliferative activity against human HL-60 cells assessed as reduction in cell viability measured after 72 hrs by CCK-8 assay. As to conditions: HL-60, 72 h.
Data set [11] relates to Ramos. Put plainly: Antiproliferative activity against human Ramos cells assessed as growth inhibition incubated for 72 hrs by resazurin dye based fluorescence microplate reader analysis. Format: functional.
The target of data set [12] is T1, Tyrosine-protein kinase BTK. Put plainly: Inhibition of BTK (unknown origin) using Poly(Glu4,Tyr1) as substrate in presence of ATP by radiometric kinase assay.
Data set [13] concerns TMD8. The experiment in a line: Antitumor activity against human TMD8 cells xenografted in SCID mouse assessed as tumor growth inhibition at 1.5 mg/kg, po bid administered daily 20 days by caliper analysis. It counts as functional. As to conditions: TMD8, 480 h, time 20 day, read-out: TGI.
For data set [14], the system named is Raji. The experiment in a line: Antiproliferative activity against human Raji cells assessed as reduction in cell viability incubated for 96 hrs by MTT assay. It counts as functional, cell-based.
For data set [15], the target named is T1, Tyrosine-protein kinase BTK. The experiment in a line: Inhibition of recombinant human wild type BTK using Poly(Glu4,Tyr1) and ATP as substrate measured after 2 hrs by ADP-Glo kinase assay.
The subject of data set [16] is TMD8. The experiment in a line: Antitumor activity against human TMD8 cells xenografted in SCID mouse assessed as tumor growth inhibition at 3 mg/kg, po bid administered daily 20 days by caliper analysis. It counts as functional. The conditions noted are these: TMD8, 480 h, time 20 day, read-out: TGI.
In data set [17] the test system is TMD8. Put plainly: Antiproliferative activity against human TMD8 cells assessed as reduction in cell viability incubated for 96 hrs by MTT assay. Format: functional, cell-based. The conditions noted are these: TMD8, 96 h.
Data set [18] in a line: Inhibition of recombinant human BTK cys481S mutant using Poly(Glu4,Tyr1) and ATP as substrate measured after 2 hrs by ADP-Glo kinase assay.
For data set [19], the system named is TMD8. Put plainly: Antitumor activity against human TMD8 cells xenografted in SCID mouse assessed as tumor growth inhibition at 15 mg/kg, po bid administered daily 20 days by caliper analysis. As to conditions: TMD8, 480 h, time 20 day, read-out: TGI. Format: functional.
The test system of another data set is Rec1. The experiment in a line: Antiproliferative activity against human REC1 cells assessed as inhibition of cell proliferation by MTT assay. Format: functional, cell-based.
Data set [20] in a line: Oral bioavailability in rat at 30 mg/kg measured upto 8 hrs. Format: ADME, organism-based. The conditions noted are these: in vivo.
For a further data set, the system named is OCI-Ly10. Put plainly: Antiproliferative activity against human OCILY10 cells assessed as inhibition of cell proliferation by MTT assay. It counts as functional, cell-based.
A short description of data set [21]: Antiproliferative activity against human MINO cells assessed as inhibition of cell proliferation by MTT assay. Format: functional, cell-based.
Another data set relates to DOHH-2. The experiment in a line: Antiproliferative activity against human DOHH-2 cells assessed as inhibition of cell proliferation by MTT assay. It counts as functional, cell-based.
The test system of a further data set is HEK293. The experiment in a line: Antiproliferative activity against human HEK293 cells assessed as reduction in cell viability by MTT assay. It counts as functional, cell-based.
A further data set concerns L02. Put plainly: Antiproliferative activity against human L02 cells assessed as reduction in cell viability by MTT assay. It counts as functional, cell-based.
Data set [22] concerns the target T1, Tyrosine-protein kinase BTK. The experiment in a line: Inhibition of BTK (unknown origin) incubated for 10 mins by caliper mobility shift assay.
Data set [23] concerns U-937. Put plainly: Induction of apoptosis in human U-937 cells assessed as […] at 40 nM incubated for 48 hrs by AnnexinV-FITC/propidium iodide staining based flow cytometry analysis relative to control. Format: functional.
The next data set deals with Bcr/Abl fusion protein (Homo sapiens, UniProt P00519). The experiment in a line: Inhibition of BCR-ABL (unknown origin) using peptide GGEAIYAAPFKK as substrate. It counts as protein assay.
Bcr/Abl fusion protein, sequence (P00519 whole entry, the tested form may be a part): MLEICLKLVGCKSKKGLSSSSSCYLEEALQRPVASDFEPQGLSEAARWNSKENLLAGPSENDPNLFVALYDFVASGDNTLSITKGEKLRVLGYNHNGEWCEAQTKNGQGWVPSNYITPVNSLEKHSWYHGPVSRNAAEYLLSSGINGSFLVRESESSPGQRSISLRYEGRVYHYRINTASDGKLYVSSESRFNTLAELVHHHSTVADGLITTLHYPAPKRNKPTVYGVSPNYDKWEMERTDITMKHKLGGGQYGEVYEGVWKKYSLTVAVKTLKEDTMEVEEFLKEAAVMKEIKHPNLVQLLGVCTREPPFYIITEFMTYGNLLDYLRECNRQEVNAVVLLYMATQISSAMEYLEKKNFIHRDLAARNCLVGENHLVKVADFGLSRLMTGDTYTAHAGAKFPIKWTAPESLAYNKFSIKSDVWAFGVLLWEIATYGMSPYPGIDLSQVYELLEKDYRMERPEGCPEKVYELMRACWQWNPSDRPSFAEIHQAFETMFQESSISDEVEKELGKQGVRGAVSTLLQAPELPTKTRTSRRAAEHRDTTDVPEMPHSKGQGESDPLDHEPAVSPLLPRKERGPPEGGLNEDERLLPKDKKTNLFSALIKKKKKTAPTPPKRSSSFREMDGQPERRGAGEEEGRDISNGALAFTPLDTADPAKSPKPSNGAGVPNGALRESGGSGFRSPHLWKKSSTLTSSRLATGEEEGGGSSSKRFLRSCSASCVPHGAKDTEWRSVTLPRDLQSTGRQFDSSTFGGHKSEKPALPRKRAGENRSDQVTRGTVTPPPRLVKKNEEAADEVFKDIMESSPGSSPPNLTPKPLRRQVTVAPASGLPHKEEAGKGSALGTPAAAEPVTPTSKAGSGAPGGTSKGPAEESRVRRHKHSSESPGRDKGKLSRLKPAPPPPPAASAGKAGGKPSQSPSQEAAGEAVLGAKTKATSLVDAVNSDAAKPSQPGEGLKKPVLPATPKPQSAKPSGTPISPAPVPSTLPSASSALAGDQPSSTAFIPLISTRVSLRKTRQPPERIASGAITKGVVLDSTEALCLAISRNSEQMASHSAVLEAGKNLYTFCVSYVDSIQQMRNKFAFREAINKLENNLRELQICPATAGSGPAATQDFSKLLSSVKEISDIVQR
Bcr/Abl fusion protein, sequence (P11274 whole entry, further chain, the tested form may be a part): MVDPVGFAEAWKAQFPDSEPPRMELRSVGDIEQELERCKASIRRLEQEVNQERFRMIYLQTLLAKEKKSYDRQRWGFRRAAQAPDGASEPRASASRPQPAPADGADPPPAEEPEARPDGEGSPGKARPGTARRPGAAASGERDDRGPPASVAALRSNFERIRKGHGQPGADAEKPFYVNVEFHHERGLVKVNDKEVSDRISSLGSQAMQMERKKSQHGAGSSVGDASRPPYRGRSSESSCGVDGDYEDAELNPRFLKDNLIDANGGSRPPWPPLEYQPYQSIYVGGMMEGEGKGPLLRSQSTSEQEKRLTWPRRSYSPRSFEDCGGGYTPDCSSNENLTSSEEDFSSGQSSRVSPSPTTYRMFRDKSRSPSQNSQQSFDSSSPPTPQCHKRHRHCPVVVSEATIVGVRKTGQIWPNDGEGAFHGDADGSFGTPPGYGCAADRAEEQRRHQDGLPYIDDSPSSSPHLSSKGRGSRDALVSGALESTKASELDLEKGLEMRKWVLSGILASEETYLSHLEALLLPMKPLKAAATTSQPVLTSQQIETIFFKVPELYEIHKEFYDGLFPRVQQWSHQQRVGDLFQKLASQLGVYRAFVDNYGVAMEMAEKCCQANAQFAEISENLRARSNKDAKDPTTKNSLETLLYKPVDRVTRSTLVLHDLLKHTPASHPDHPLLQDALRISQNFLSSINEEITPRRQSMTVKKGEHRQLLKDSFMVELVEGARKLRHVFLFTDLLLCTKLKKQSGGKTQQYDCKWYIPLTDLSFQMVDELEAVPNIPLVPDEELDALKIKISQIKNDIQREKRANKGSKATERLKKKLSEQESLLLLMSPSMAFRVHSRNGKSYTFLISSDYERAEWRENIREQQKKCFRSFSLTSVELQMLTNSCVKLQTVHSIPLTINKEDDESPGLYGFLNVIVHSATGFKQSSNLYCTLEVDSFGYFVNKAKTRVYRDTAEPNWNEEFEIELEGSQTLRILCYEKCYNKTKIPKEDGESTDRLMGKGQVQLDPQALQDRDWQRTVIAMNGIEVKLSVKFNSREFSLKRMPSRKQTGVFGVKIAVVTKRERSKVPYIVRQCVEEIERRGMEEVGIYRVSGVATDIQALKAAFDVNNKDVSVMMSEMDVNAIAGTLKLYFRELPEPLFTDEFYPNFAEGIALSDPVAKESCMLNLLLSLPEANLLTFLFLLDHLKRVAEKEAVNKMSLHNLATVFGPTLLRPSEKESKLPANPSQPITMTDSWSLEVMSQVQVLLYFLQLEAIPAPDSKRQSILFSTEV

Consider `Nc1ccc(Cn2nc(-c3ccc(Oc4ccccc4)cc3)c3c(N)ncnc32)cc1`, for which the results for the IC50 in [1] and in data set [2] were 13.9 µM and 0.082 µM, respectively.
Regarding `C=CC(=O)Nc1cccc(N2C(=O)OC(C)c3cnc(Nc4ccc(N5CCN(C)CC5)cc4OC)nc32)c1` (stereo not given), the IC50 in data set [3] stood at 0.007 µM; in the data set with TMD8 [4], 0.028 µM; in data set [5], 0.0474 µM.
On to `C=CS(=O)(=O)N1CCC(Cn2cc(-c3ccc4c(c3)OCO4)c3c(N)ncnc32)CC1`, for which the solubility kinetic in [6] turned out to be 100 µg/mL (≈ 226 µM). For the same compound, in data set [3], the IC50 stood at 0.00132 µM.
In the case of `Nc1ncnc2c1c(-c1ccc(Oc3ccccc3)nc1)nn2C1CCCN(C(=O)CCl)C1` (stereo not given), the IC50 with Z-138 worked out at 0.4 µM; in [1], 0.4 µM; in data set [2], 0.036 µM.
With `C=CC(=O)Nc1cccc(Nc2nc(Nc3ccc(Cn4cc(C)nc4CC)cc3)ncc2F)c1`, the IC50 is less than 10.8 µM in the data set on Ramos [7]; 0.0424 µM in [8]; less than 10.8 µM in the data set with NAMALVA; 0.106 µM in the data set on U-937 [9]; less than 10.8 µM with Raji [10]; 0.116 µM with HL-60.
Turning to `CN1CCN(c2ccc(Nc3nc(Nc4ccc(F)c(F)c4)c4ncn(CC5CC5)c4n3)cc2)CC1`, the GI50 in the data set with Ramos [11] is 4.63 µM. Further, the IC50 in data set [12] was found to be 0.58 µM.
As for `Nc1cccc(Cn2nc(-c3ccc(Oc4ccccc4)cc3)c3c(N)ncnc32)c1`, the values for the IC50 in data set [1] and in [2] were 9.5 µM and 0.075 µM, respectively.
`C=CC(=O)N1CCCC(Cn2cc(-c3ccc(Oc4ccccc4)cc3)c3c(N)ncnc32)C1` (single isomer, unassigned): in [3], the IC50 was found to be 0.00171 µM.
As to `C=CC(=O)Nc1cccc(N2C(=O)OCc3cnc(Nc4ccc(N5CCN(C)CC5)cc4OC)nc32)c1`, the results for the IC50 in data set [3] and in data set [5] were 0.0047 µM and 0.0288 µM, respectively.
Regarding `C=CC(=O)N1CC2CC(n3nc(-c4ccc(C(=O)Nc5ccccn5)cc4)c4c(N)ncnc43)CC2C1` (stereo not given), the inhibition in vivo at 1.5 mg/kg in the data set on TMD8 [13] was determined as 10%. Also, the IC50 amounted to 13.2 µM in the data set with Raji [14], 0.001 µM in [15], 0.00078 µM with TMD8 [17] and 0.014 µM in [18]. Also, in the data set on TMD8 [16], the inhibition in vivo at 3 mg/kg was found to be 50%. Further, in the data set with TMD8 [19], the inhibition in vivo at 15 mg/kg was 88%.
`C=C(Cl)C(=O)N1CCC[C@H](n2nc(-c3ccc(Oc4ccccc4)cc3)c3c(N)ncnc32)C1`: the IC50 was 0.01 µM in the data set with Rec1; 0.16 µM in the data set on OCI-Ly10; 0.56 µM in data set [21]; 0.22 µM in the data set with DOHH-2; 5.46 µM in the data set with HEK293; 15.9 µM in the data set with L02. The IC50 in data set [22] is 0.0025 µM. This compound gave a bioavailability in data set [20] of 6%.
On to `C=CC(=O)Nc1cccc(Nc2nc(Nc3ccc(Cn4cc(C)nc4CC)cc3)ncc2Cl)c1`, for which the IC50 is less than 10.8 µM with Ramos [7]; 0.0177 µM in data set [8]; less than 10.8 µM in the data set on NAMALVA; 0.038 µM in the data set on U-937 [9]; less than 10.8 µM in the data set on Raji [10]; 0.109 µM with HL-60. For the same compound, the Activity in the data set on U-937 [23] is recorded as 55%.
As for `CN1CCN(c2ccc(Nc3nc(Nc4ccc(F)c(F)c4)c4ncn(CC5CC5)c4n3)cc2F)CC1`, in the data set on Ramos [11], the GI50 was found to be 4.1 µM. The values for the half-maximal inhibitory concentration (IC50) (at Bcr/Abl fusion protein; in [12]) were 0.58 µM and 2.65 µM, respectively.
Regarding `Nc1ncnc2c1c(-c1ccc(Oc3ccccc3)cc1)nn2Cc1cccc(NC(=O)CCl)c1`, the IC50 is 0.9 µM in data set [1] and 0.027 µM in data set [2].
